The results in this text go back to US4209441A, “Anti-gastric secretion polypeptide” (American Home Products Corporation, priority 1979, dated 1980).

Structures can show the parent of a compound that is named as a salt. Bridge positions count the residues as written; N and C are the ends. Square brackets hold non-standard residues; d marks the D form. Peptide text beside a SMILES is read from it.

Format in all cases: in vivo, rat
Assay [1] concerns gastric acid secretion (total acid output). In words: Anti-secretory activity in pylorus-ligated rats (total acid output over four hours). The following applies: for Percentage Inhibition (of Total Acid Output): i.d. administration, pylorus-ligated rats, 4 hr, versus control group. The protocol:
The polypeptide of this invention was tested and found active parenterally (s.c.) in the following scientifically recognized, standard test for anti-secretory activity;
Male Charles River rats of Sprague-Dawley strain and 190 to 240 gm. body weight are food deprived for 24 hr. with water ad libitum until the test. Groups of ten rats each are assigned to either control or drug treatment. Pyloric ligation was performed under ether anesthesia through a midline laparotomy, and either control vehicle (0.25 methylcellulose) or drug in control vehicle was administered intraduodenally. The rats are sacrificed by CO2 asphyxiation four hours after pyloric ligation. The stomachs are removed and the gastric contents emptied into graduated centrifuge tubes. The gastric samples are centrifuged for 20 min. and those obviously contaminated by food, blood or feces are discarded. The volume of gastric fluid is recorded and the acid concentration of 1.0 ml. sample aliquots is measured by electrometric titration to pH 7.0 with 0.1 N NaOH. The calculated product of gastric volume (ml/4 hr.) and acid concentration (mEq/L) estimates the total acid output (TAO, mEq/4 hr.) over the four-hour test period.
An index of drug gastric antisecretory activity is reported at the end of the example illustrating its production. The results, expressed as percentage inhibition, show the reduction of acid secretion in drug-treated compared to control groups, based upon i.d. administration of 2 mg/kg and 0.5 mg/kg of the tested compound. In addition, the effect of the polypeptide in the control of insulin and glucagon secretion is reported at a dose of 750 micrograms per kilogram.

Assay [2] relates to insulin. Description: Suppression of insulin in arginine-stimulated rats. To be noted: for reduction in insulin in vivo (in words): tested in vivo by standard methods. The protocol:
(§1) Albino male rats are administered Nembutol intraperitoneally at a dose of 50 mg/kg. Fifteen minutes later a subcutaneous injection of the test compound or physiological saline is administered. Ten minutes later 0.5 ml. of arginine (300 mg/ml, pH 7.2) is injected into the heart. Five minutes after receipt of the arginine the rats are decapitated and blood is collected into Trasylol-EDTA. An appropriate aliquot is assayed for insulin and glucagon.

Assay [3] relates to glucagon. Description: Suppression of glucagon in arginine-stimulated rats. To be noted: for reduction in glucagon in vivo (in words): tested in vivo by standard methods. As to the method: as §1
[4] abbreviates: listed as compound of this invention.
[5] abbreviates: listed as polypeptide of the invention.

As to `C[C@H](N)C(=O)NCC(=O)N[C@H]1CSSC[C@@H](C(=O)O)NC(=O)[C@H](CO)NC(=O)[C@H]([C@@H](C)O)NC(=O)[C@H](Cc2ccc(O)cc2)NC(=O)[C@H]([C@@H](C)O)NC(=O)[C@H](CCCCN)NC(=O)[C@@H](Cc2c[nH]c3ccccc23)NC(=O)[C@H](Cc2ccccc2)NC(=O)[C@H](Cc2ccccc2)NC(=O)[C@H](CC(N)=O)NC(=O)[C@H](CCCCN)NC1=O` [Example 5, L-alanylglycyl-L-cysteinyl-L-lysyl-L-asparaginyl-L-phenylalanyl-L-phenylalanyl-D-tryptophyl-L-lysyl-L-threonyl-L-tyrosyl-L-threonyl-L-seryl-L-cysteine cyclic (3-14)-disulfide, triacetate-salt] (H-AGCKNFF[dW]KTYTSC-OH; disulfide 3-14), the “Percentage Inhibition (of Total Acid Output)” value amounted to 38% in assay [1] (0.5 mg/kg) and 68% in assay [1] (2 mg/kg). Besides, the “anti-secretory activity (in words)” value in assay [1] (parenterally (s.c.)) is reported as “active”. For the same compound, in assay [2] (750 μg/kg subcutaneous, arginine-stimulated rats, blood 15 min after dosing, control 283 ± 28), the Insulin was found to be 238 ± 42 μU/ml. The figures for the “reduction in insulin in vivo (in words)” value in assay [2] (setting [4]) and in assay [2] (setting [5]) were “no meaningful reduction” and “without materially affecting”, respectively. In assay [3] (750 μg/kg subcutaneous, arginine-stimulated rats, blood 15 min after dosing, control 55 ± 5), the Glucagon stood at 35 ± 9 pg/mL. Moreover, the “reduction in glucagon in vivo (in words)” value in assay [3] (setting [4]) is “no meaningful reduction”; in assay [3] (setting [5]), “without materially affecting”.
Take `C[C@H](N)C(=O)NCC(=O)N[C@H]1CSSC[C@@H](C(=O)O)NC(=O)[C@H](CO)NC(=O)[C@H]([C@@H](C)O)NC(=O)[C@H](Cc2ccccc2)NC(=O)[C@H]([C@@H](C)O)NC(=O)[C@H](CCCCN)NC(=O)[C@H](Cc2c[nH]c3ccccc23)NC(=O)[C@H](Cc2ccccc2)NC(=O)[C@H](Cc2ccccc2)NC(=O)[C@H](CC(N)=O)NC(=O)[C@H](CCCCN)NC1=O` [Somatostatin, reference compound]: the “dose that effectively inhibits secretion of insulin” value in assay [2] (same test procedure) is listed as “about 10 micrograms per kilogram”. Besides, the “dose that effectively inhibits secretion of glucagon” value in assay [3] (same test procedure) is on record as “about 10 micrograms per kilogram”.
